{"source": "paper PMC8118275", "about": "“Allosteric MAPKAPK2 inhibitors improve plaque stability in advanced atherosclerosis” (PLoS ONE, 2021)", "key": {"[1]": {"biological_target": "hMK2 (Homo sapiens, UniProt P49137)", "sequence (P49137 whole entry)": "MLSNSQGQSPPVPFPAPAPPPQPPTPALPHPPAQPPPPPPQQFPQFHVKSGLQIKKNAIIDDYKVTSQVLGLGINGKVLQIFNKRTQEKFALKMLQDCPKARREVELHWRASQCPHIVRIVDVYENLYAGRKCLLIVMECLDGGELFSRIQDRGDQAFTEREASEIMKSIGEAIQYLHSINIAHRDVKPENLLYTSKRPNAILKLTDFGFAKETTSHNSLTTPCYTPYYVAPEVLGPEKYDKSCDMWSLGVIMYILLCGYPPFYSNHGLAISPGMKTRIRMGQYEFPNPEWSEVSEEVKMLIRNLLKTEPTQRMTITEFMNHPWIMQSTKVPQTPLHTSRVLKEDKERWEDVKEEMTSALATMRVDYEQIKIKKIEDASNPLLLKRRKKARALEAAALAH", "assay": "hMK2 inhibition", "type": "biochemical"}, "[2]": {"assay": "Pharmacokinetics in CD-1 mice after single oral and intravenous administration", "type": "in vivo, mouse", "conditions": "for Clearance (Cl) / Cmax / F (oral bioavailability) / Half-life: CD-1 mice, TBX-1 1 mpk iv and 5 mpk po, TBX-2 1 mpk iv and 3 mpk po; for plasma half-life: mice, intravenous and oral administration", "description": "The pharmacokinetics of the compounds were evaluated in CD-1 mice by single oral and intravenous routes of drug administration. The mice were fasted overnight before oral-gavage dosing of the compounds. The solutions used for PK studies were prepared by dissolving the compounds in 5% Solutol HS 15 in water. Following oral or intravenous administration of compounds, blood samples were collected at 0.08, 0.25, 0.5, 1, 2, 4, 6, 8, 12, and 24 h after dosing. Blood samples were centrifuged to separate plasma, and compound concentrations were determined by LC-MS. Dosing was well tolerated following oral and intravenous administration of both compounds, and no abnormal behavior was observed."}, "[3]": {"tested_on": "MK2 activity (phospho-hsp25)", "assay": "Phospho-hsp25 (MK2 substrate) in liver and aortic root lesions of WD-fed Ldlr-/- mice", "type": "in vivo, mouse", "conditions": "~30 mg/kg body weight per day in WD for 6 weeks", "description": "Eight-week-old male Ldlr^-/- mice on the C57BL/6J background were purchased from Jackson Laboratory (stock # 002207) and fed a Western-type Diet (WD) for 16 weeks (Envigo, TD.88137; 21.2% fat, 0.2% cholesterol, 48.5% carbohydrate, and 17.3% protein by weight). Between weeks 10–16 of feeding, the WD of the experimental group was supplemented with TBX-1 or TBX-2 (600 mg/kg diet) to achieve a dose of ∼30 mg/kg body weight per day, whereas control mice remained on regular WD. The study included four separate cohorts, each comprised of 5 to 10 mice per group. The mice were randomly assigned to the different cohorts. Fasting blood glucose was measured in mice that were fasted for 5 h, with free access to water, using a glucose meter. […] Plasma insulin levels were measured in mice that were fasted for 5 h using an ultra-sensitive mouse insulin ELISA kit (Crystal Chem). […]\nTotal lesion area and necrotic area analysis were carried out on hematoxylin and eosin (H&E)-stained aortic root lesional cross sections as previously described. Briefly, total lesion area (from internal elastic lamina to the lumen) and acellular/anuclear areas (negative for hematoxylin-positive nuclei) per cross section were quantified by taking the average of 6 sections spaced 30 μm apart beginning at the base of the aortic root. […] Three slides, each with 2 sections, were assessed for each mouse. […]"}, "[4]": {"tested_on": "aortic root lesions of WD-fed Ldlr-/- mice", "assay": "Aortic root atherosclerotic lesion analysis and in situ efferocytosis in WD-fed Ldlr-/- mice", "type": "in vivo, mouse", "conditions": "for total necrotic area: aortic root; for collagen content of the lesions / fibrous-cap thickness: picrosirius red; for collagen content of the lesions: percent of total lesion area; for fibrous-cap thickness: ratio of cap thickness to lesion size", "description": "(§1) Eight-week-old male Ldlr^-/- mice on the C57BL/6J background were purchased from Jackson Laboratory (stock # 002207) and fed a Western-type Diet (WD) for 16 weeks (Envigo, TD.88137; 21.2% fat, 0.2% cholesterol, 48.5% carbohydrate, and 17.3% protein by weight). Between weeks 10–16 of feeding, the WD of the experimental group was supplemented with TBX-1 or TBX-2 (600 mg/kg diet) to achieve a dose of ∼30 mg/kg body weight per day, whereas control mice remained on regular WD. The study included four separate cohorts, each comprised of 5 to 10 mice per group. The mice were randomly assigned to the different cohorts. Fasting blood glucose was measured in mice that were fasted for 5 h, with free access to water, using a glucose meter. Insulin tolerance test was performed in 5 h-fasted mice by assaying blood glucose at various times after injection of insulin (0.7 IU/kg body wt i.p.). Plasma insulin levels were measured in mice that were fasted for 5 h using an ultra-sensitive mouse insulin ELISA kit (Crystal Chem). At the time of harvest, mice were euthanized using isoflurane, and blood was then removed by left ventricular puncture. Animals were provided with food and water ad libitum and housed in standard cages at 22°C in a 12-12h light-dark cycle in a barrier facility. The Columbia University IACUC provided ethical approval for these studies, and procedures were conducted in accordance with approved animal protocols.\nTotal lesion area and necrotic area analysis were carried out on hematoxylin and eosin (H&E)-stained aortic root lesional cross sections as previously described. Briefly, total lesion area (from internal elastic lamina to the lumen) and acellular/anuclear areas (negative for hematoxylin-positive nuclei) per cross section were quantified by taking the average of 6 sections spaced 30 μm apart beginning at the base of the aortic root. Necrotic areas were defined as anuclear areas based on absence of hematoxylin staining. Collagen staining was performed using picrosirius red as per the manufacturer’s instructions (Polysciences Inc.), and fibrous cap thickness was quantified from 3 distinct regions of the plaque and scored per lesion size as previously described. For immunofluorescence staining, frozen sections were fixed in cold acetone for 10 minutes. After blocking for 1 hour in serum-free protein blocking buffer (DAKO, catalog X0909), sections were incubated overnight at 4°C with anti–phospho-hsp25 (CST, 1:200), anti-Mac2 (1:10,000), and smooth-muscle α actin (SMαA, 1:150) antibodies, rinsed with PBS three times, incubated with fluorescently-labeled secondary antibodies for 2 hours, and counterstained with DAPI. Three slides, each with 2 sections, were assessed for each mouse.\nExperimentation was carried out as previously described. In brief, acetone-fixed aortic root sections were incubated with TUNEL (Roche) followed by staining with anti-Mac2 (1:10,000) to label macrophages. Apoptotic cells were then determined to be either macrophage-associated (colocalizing or juxtaposed with macrophages) or free (not associated with macrophages). Data were plotted as a ratio of associated-to free cells, which is a measure of efferocytosis."}, "[5]": {"tested_on": "forskolin-induced G6pc mRNA", "assay": "Forskolin-induced G6pc mRNA in primary mouse hepatocytes (RT-qPCR)", "type": "cell-based", "conditions": "TBX-1 1 h, then TBX-1 and forskolin 4 h in serum-free media", "description": "Primary mouse hepatocytes were isolated from 8- to 12-week-old mice as described previously and cultured in media containing Dulbecco’s Modified Eagle’s Medium (DMEM) (Corning, #10-013-CV), 10% (vol/vol) heat-inactivated FBS, and 1X penicillin-streptomycin. After overnight incubation, the cells were washed twice with PBS, treated with the indicated concentrations of TBX-1 for 1 h, followed by treatment with TBX-1 and forskolin for 4 h in FBS-free media.\nImmunoblot and quantitative RT-PCR (RT-qPCR) assays were conducted as previously described. […]\nDensitometric quantification of the data are shown in the bar graphs (n = 5-6 mice/group; mean ± SEM, p = 0.003, p = 0.001 and p = 0.02, respectively).\nS2 Fig. Blood leukocyte and monocyte counts are similar between control and MK2 inhibitor–treated mice. […] Whole blood was analyzed for the number of total white blood cells (A) and monocytes (B) from a randomly selected subset of TBX-1–treated Ldlr-/- mice (n = 19 mice/group; mean ± SEM). […]\nS3 Fig. Lesional collagen content is increased, whereas macrophage and smooth muscle cell numbers are similar between control and MK2 inhibitor–treated mice. […] Picrosirius red staining was quantified, and collagen content is expressed as percent of total lesion area (n = 7-10 mice/group; mean ± SEM, p = 0.009 and p = 0.03, respectively). […]"}, "[6]": {"tested_on": "WD-fed Ldlr-/- mice", "assay": "Metabolism, plasma lipids, blood cells and tolerability in WD-fed Ldlr-/- mice with established atherosclerosis", "type": "in vivo, mouse", "conditions": "~30 mg/kg body weight per day in WD for 6 weeks; for blood leukocyte (total white blood cell) count / blood monocyte count: versus control", "description": "as §1\nTotal plasma cholesterol and triglyceride levels were measured using commercially available kits (Wako Diagnostics). Plasma lipoproteins were analyzed by running 200 μl of pooled plasma onto a fast protein liquid chromatography system consisting of 2 Superose 6 columns connected in series (Amersham Pharmacia Biotech) as described previously."}}, "data": [{"compound": "CN(C)[C@@H]1CCN(c2ccc3c(c2)Cn2cc(-c4ccc(C#N)cc4)cc2-c2nncn2-3)C1", "note": "[TBX-1]", "values": [{"measurement": "IC50", "setting": "[1]", "value": 67, "unit": "nM"}, {"measurement": "Clearance (Cl)", "setting": "[2]", "value": 24.8, "unit": "mL/min/kg"}, {"measurement": "Cmax", "setting": "[2]", "value": 58, "unit": "nM"}, {"measurement": "F (oral bioavailability)", "setting": "[2]", "value": 20.0, "unit": "%"}, {"measurement": "Half-life", "setting": "[2]", "value": 2.7, "unit": "h"}, {"measurement": "plasma half-life", "setting": "[2]", "value": 2.7, "unit": "h"}, {"measurement": "phospho-hsp25 levels in atherosclerotic lesions", "setting": "[3]; aortic root sections, MFI within Mac2+ area", "value": "significantly reduced"}, {"measurement": "phosphorylation of hsp25 in liver", "setting": "[3]; liver extracts, immunoblot", "value": "efficiently reduced"}, {"measurement": "total necrotic area", "setting": "[4]", "value": "significantly reduced"}, {"measurement": "collagen content of the lesions", "setting": "[4]", "value": "significantly increased"}, {"measurement": "fibrous-cap thickness", "setting": "[4]", "value": "significantly increased"}, {"measurement": "forskolin-induced G6pc mRNA", "setting": "[5]", "value": "inhibited forskolin-induced G6pc mRNA in a dose-dependent manner"}, {"measurement": "blood leukocyte (total white blood cell) count", "setting": "[6]", "value": "similar"}, {"measurement": "blood monocyte count", "setting": "[6]", "value": "similar"}, {"measurement": "LDL-cholesterol (fast protein liquid chromatography of plasma)", "setting": "[6]", "value": "reduced"}, {"measurement": "VLDL-cholesterol (fast protein liquid chromatography of plasma)", "setting": "[6]", "value": "reduced"}]}, {"compound": "CN(C)C[C@H]1CC(=O)N(c2ccc3c(c2)Cn2cc(-c4ccc(C#N)cc4)cc2-c2nccn2-3)C1", "note": "[TBX-2]", "values": [{"measurement": "IC50", "setting": "[1]", "value": 19, "unit": "nM"}, {"measurement": "Clearance (Cl)", "setting": "[2]", "value": 12.2, "unit": "mL/min/kg"}, {"measurement": "Cmax", "setting": "[2]", "value": 296, "unit": "nM"}, {"measurement": "F (oral bioavailability)", "setting": "[2]", "value": 89.1, "unit": "%"}, {"measurement": "Half-life", "setting": "[2]", "value": 3.1, "unit": "h"}, {"measurement": "plasma half-life", "setting": "[2]", "value": 3.1, "unit": "h"}, {"measurement": "total necrotic area", "setting": "[4]", "value": "significantly reduced"}, {"measurement": "collagen content of the lesions", "setting": "[4]", "value": "significantly increased"}, {"measurement": "fibrous-cap thickness", "setting": "[4]", "value": "significantly increased"}, {"measurement": "blood leukocyte (total white blood cell) count", "setting": "[6]", "value": "similar"}, {"measurement": "blood monocyte count", "setting": "[6]", "value": "similar"}, {"measurement": "LDL-cholesterol (fast protein liquid chromatography of plasma)", "setting": "[6]", "value": "reduced"}, {"measurement": "VLDL-cholesterol (fast protein liquid chromatography of plasma)", "setting": "[6]", "value": "reduced"}]}]}
